From PubChem BioAssay (NCI) come the findings set out here.

Molecules are shown by their SMILES.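 How tested: cells in 96-well plates exposed to compound for 48 hours at five concentrations. Definition used: TGI = concentration required for complete inhibition of growth.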 Some results are limits rather than exact numbers.

Test in all cases: DTP human tumour cell line panel, 48 h
Test [1] deals with IGROV1 ovarian.
Test [2] concerns TK-10 renal.
Test [3] relates to MOLT-4 leukemia.
Test [4] relates to HCT-15 colon.
For test [5], the system named is EKVX NSCLC.
Test [6] relates to SF-295 CNS.
For test [7], the system named is NCI/ADR-RES ovarian.
Test [8] relates to A498 renal.
Test [9] has as its system A549 NSCLC.
For test [10], the system named is SN12C renal.

A word on the TGI: it is the concentration at which net growth stops. The low end stands for greater sensitivity of the cells, the high end for lower sensitivity of the cells. `CC(C)CCCC(C)[C@H]1CCC2[C@@H]3CCC4Cc5nc6c(nc5C[C@]4(C)C3CC[C@@]21C)CC1CC[C@@H]2C(CC[C@@]3(C)C2CC[C@@H]3O)[C@@]1(C)C6` (stereo not given in full): the concentration for total growth inhibition (TGI) in test [1], in test [2], in test [3], in [4], in [5] and in test [6] was greater than 100 µM throughout. Besides, the concentration for total growth inhibition (TGI) in test [7], in [8], in test [9] and in test [10] was greater than 100 µM in each case.
`O=C1Nc2ccccc2C1S(=O)(=O)c1ccccc1` (stereo not given): the concentration for total growth inhibition (TGI) in test [1], in test [2], in test [3], in [4], in test [5] and in test [6] was greater than 100 µM throughout. The TGI in test [7], in test [8], in [9] and in test [10] was greater than 100 µM each time.
As for `Cc1ccc(C=C(C(=O)O)C(=O)O)o1`, the total growth inhibition concentration (TGI) in test [1], in [2], in test [3], in [4], in [5] and in test [6] was greater than 100 µM throughout. In addition, the total growth inhibition concentration (TGI) in test [7], in [8], in test [9] and in [10] was greater than 100 µM in each case.
In the case of `CC1(CCCCO)C=CC(S(=O)(=O)c2ccccc2)CC1` (stereo not given), the TGI in test [1] was determined as 12.1 µM; in [2], 19.1 µM; in [3], 14.9 µM; in test [4], 13.3 µM; in test [5], 18 µM; in test [6] it was 24.4 µM. Further, the TGI amounted to 12.5 µM in test [7], 21.7 µM in [8], 13.6 µM in test [9] and 23.6 µM in test [10].
On to `O=C1c2ccccc2-n2c1nc1ccc(Cl)cc1c2=O`, for which the TGI in test [1], in test [2], in test [3], in [4], in test [5] and in [6] was greater than 100 µM each time. Moreover, the TGI in test [7], in [8], in test [9] and in test [10] was greater than 100 µM each time.
Consider `COc1cccc(N2C(=O)C3CC(CC(C)(C)C)c4c([nH]c5ccccc45)C3C2=O)c1` (stereo not given), for which the TGI in test [1], in test [2], in test [3], in test [4], in test [5] and in test [6] was greater than 10 µM in each case. For the same compound, the concentration for total growth inhibition (TGI) in test [7], in [8], in test [9] and in test [10] was greater than 10 µM throughout.
In the case of `Cc1cc(C)nc(NC(=S)Nc2ccc(Cl)cc2)c1`, the TGI in test [1], in test [2], in test [3], in test [4], in test [5] and in test [6] was greater than 100 µM each time. Also, the concentration for total growth inhibition (TGI) in test [7], in [8], in test [9] and in test [10] was greater than 100 µM in each case.
Consider `CC(C)=NNc1ncnc2nc[nH]c12`, for which the total growth inhibition concentration (TGI) in test [1] was greater than 100 µM; in [2] it was greater than 100 µM; in test [3], greater than 100 µM; in [4], greater than 100 µM; in test [5] it was 98.2 µM; in test [6], greater than 100 µM. The concentration for total growth inhibition (TGI) in test [7] is greater than 100 µM; in test [8], 54.2 µM; in [9], greater than 72.4 µM; in test [10], greater than 100 µM.
Turning to `O/N=C1\CSc2ccccc2C1`, the TGI is greater than 100 µM in [1]; greater than 100 µM in test [2]; greater than 100 µM in [3]; greater than 100 µM in test [4]; 94.5 µM in test [5]; greater than 100 µM in test [6]. Besides, the TGI in test [7], in test [8], in test [9] and in [10] was greater than 100 µM throughout.
Turning to `O=c1[nH]nc(Cc2ccccc2)n1C1CC1`, the concentration for total growth inhibition (TGI) in [1], in test [2], in test [3], in test [4], in test [5] and in test [6] was greater than 100 µM throughout. The TGI in [7], in [8], in test [9] and in test [10] was greater than 100 µM throughout.
Take `O=S(=O)(/N=C(\NO)Nc1ccc(Cl)cc1)c1cc(S(=O)(=O)c2ccccc2)cs1`: the TGI in [1] came to 44.9 µM; in [2], 45.4 µM; in test [3], 39.8 µM; in [4], 44.3 µM; in test [5] it was 35.4 µM; in [6], 32.7 µM. The TGI in [7] was greater than 100 µM; in test [8], 28.4 µM; in [9], 93.1 µM; in [10], 33.6 µM.
For `CC(=O)O[C@H]1C[C@@H](OC(C)=O)[C@@](C)(O)[C@@H]2[C@@H](OC(C)=O)[C@@]3(O)[C@H](/C=C(/CCl)[C@H]4O[C@H]4[C@@H](OC(C)=O)[C@@]12C)OC(=O)[C@@H]3C`, the total growth inhibition concentration (TGI) in test [1], in test [2], in test [3], in test [4], in test [5] and in test [6] was greater than 25 µM throughout. Moreover, the total growth inhibition concentration (TGI) in test [7], in test [8], in test [9] and in [10] was greater than 25 µM in each case.
Take `O=C(/C=C/c1ccc(Cl)cc1)c1ccc(Cl)s1`: the TGI in [1], in test [2], in test [3], in test [4], in [5] and in test [6] was greater than 100 µM each time. Further, the concentration for total growth inhibition (TGI) in test [7], in [8], in test [9] and in [10] was greater than 100 µM each time.
